From US9708325B2, “Sulfonimidoylpurinone compounds and derivatives for the treatment and prophylaxis of virus infection” (Hoffmann-La Roche Inc., priority 2015, dated 2017)
In brackets after ≈: the same amount, converted by molar mass. Like-named read-outs stand apart in the source and are kept apart here.

Legend:
[1] = LYSA solubility; format: physicochemical; conditions: for solubility thermodynamic: 0.05 M phosphate buffer, pH 6.5, aqueous buffer, thermodynamic from solid
Description: LYSA solubility assay is used to determine the aqueous solubility of a compound. Samples were prepared in duplicate from 10 mM DMSO stock solution. […] After one night, the solutions were filtered using a microtiter filter plate. Then the filtrate and its 1/10 dilution were analyzed by HPLC-UV.

[2] = test system: CYP3A4; assay: Cytochrome P450 induction screening assay, mRNA induction in human cryopreserved hepatocytes; format: in vitro ADME; conditions: 24 hours exposure
Source text: Induction of cytochrome P450 enzymes is associated with an increased prevalence of clinical drug-drug interactions. The clinical consequences of induction may be therapeutic failure caused by a decreased systemic exposure of the drug itself or a co-administered therapy, or toxicity as a result of increased bioactivation. Cytochrome P450 (CYP450) induction assay has been used to understand the potential drug-drug interaction liabilities in drug discovery stage. Human cryopreserved hepatocytes (Life Technologies, Carlsbad, USA) were thawed and cultured in collagen I coated 96-well plates with a density of 52,000 cells/well. After attachment, hepatocyte maintenance medium (HMM; Lonza, Switzerland) was changed after cells were pre-cultured overnight. […] Medium change was then performed and cells were exposed for 24 hours to test compounds, positive inducer compounds, or vehicle (0.1% DMSO), respectively. At the end of the compound exposure period, medium was removed and cells lysed using 100 μL/well MagNA Pure LC RNA isolation tissue lysis buffer (Roche Diagnostics AG, Rotkreuz, Switzerland). […] mRNA isolation was performed using the MagNA Pure 96 system (Roche Diagnostics AG, Rotkreuz, Switzerland) and the respective cellular RNA large volume kit (Roche Diagnostics AG, Rotkreuz, Switzerland) from thawed samples diluted 1:1 with PBS. […] The resulting cDNA was diluted with 40 μL of H2O before using for qRT-PCR. qRT-PCR was performed by using the forward and the reverse primer, the corresponding Universal Probe Library (all from Microsynth, Balgach, Switzerland) and the Taqman Fast advanced master mix (Applied Biosystems), on an ABI 7900 machine (Applied Biosystems). qRT-PCR Ct-values for the respective P450s were put into relation to the Ct-value of RN18S1 (microsynth, Balgach, Switzerland) of the same sample. Doing so, a respective Δct-value was calculated. Using the average of all Δct-values for the vehicle control samples, a ΔΔct-value was calculated for each sample (ΔΔct-value(sample)=Δct-value(sample)−average of Δct-value of all vehicle controls). […] The individual fold induction values were then averaged per treatment condition (usually n=3 biological replicates).

[3] = test system: Salmonella typhimurium tester strains (TA1535, TA97, TA98, TA100, and TA102); assay: Ames microsuspension assay; format: cell-based; conditions: five strains, absence and presence of S9
Description: The Ames microsuspension assay examines if a compound causes DNA mutations. The method was based on a modified pre-incubation version described by Kado et al (see references: B. N. Ames, J. McCann, E. Yamasaki, Mutation Res. 1975, 31, 347-364 N.Y. Kado, D. Langley, and E. Eisenstadt, Mutation Res. 1983, 121, 25-32). Five Salmonella typhimurium tester strains (TA1535, TA97, TA98, TA100, and TA102) were treated with the test compound in absence and in presence of an exogenous metabolic activation system (S9). The bacteria were pre-incubated for 1 h, the pre-incubation volume is 210 μL (100 μL of overnight culture, 100 μL of S9 mix (10% S9) or 100 μL phosphate buffer, and 10 μL test compound solution). The overnight cultures were resuspended for the test in cold phosphate buffer. The S9 mix contains potassium chloride, magnesium chloride, sodium phosphate buffered saline, NADP^+ and glucose-6-phosphate. The test tubes are incubated and shaken for 60 minutes at 37° C. 2.2 mL soft agar supplemented with L-histidine and biotin was added afterwards and the content of the tubes were mixed and poured on Vogel-Bonner minimal agar plates.
Three replicate plates for the test compound and negative control or two replicate plates for the positive controls were incubated at 37° C., upside down, for 2 days. Colonies were counted electronically using an automatic image analysis system after having inspected the background lawn for signs of toxicity.
S9 is an in vitro metabolic system which is obtained from liver homogenates by centrifuging them at 9000 g for 20 minutes. It contains CYP450 isoforms, phase-II metabolic enzymes, etc. In the Ames microsuspension assay test, S9 is used to assess mutagenicity of compounds, some of which require metabolic activation to become mutagenic.
Criteria of the Ames microsuspension assay: a positive result is defined as a reproducible, dose-related increase in the number of revertant colonies in at least one of the strains. For TA1535 and TA98, the positive threshold is a 2-fold increase over control. For TA97, TA100 and TA102, the threshold is a 1.5-fold increase.

[4] = Single dose PK after 1 mg/kg intravenous dosing to rat; format: in vivo, Male Wister-Han Rats; conditions: IV 1 mpk
Description: The single dose PK in Male Wister-Han Rats was performed to assess pharmacokinetic properties of tested compounds. Two groups of animals were dosed via bolus intravenous (IV) of the respective compound. Blood samples (approximately 20 μL) were collected via Jugular vein or an alternate site at 5 min, 15 min, 30 min, 1 hr, 2 hr, 4 hr, 7 hr and 24 hr post-dose for IV group. Blood samples were placed into tubes containing EDTA-K2 anticoagulant and centrifuged at 5000 rpm for 6 min at 4° C. to separate plasma from the samples. Following centrifugation, the resulting plasma was transferred to clean tubes for bioanalysis on LC/MS/MS. The pharmacokinetic parameters were calculated using non-compartmental module of WinNonlin® Professional 6.2. […] Therefore, compounds of present invention potentially could lead to less dose frequency and lower dose in clinical application.

[5] = 7 hrs (row printed 8**), read-out: Mean plasma concentration
[6] = male, Wistar-Han, plasma, iv, 1 mg/kg, 0.083 h
[7] = male, Wistar-Han, plasma, iv, 1 mg/kg, 0.25 h
[8] = male, Wistar-Han, plasma, iv, 1 mg/kg, 0.5 h
[9] = male, Wistar-Han, plasma, iv, 1 mg/kg, 1 h
[10] = male, Wistar-Han, plasma, iv, 1 mg/kg, 2 h
[11] = male, Wistar-Han, plasma, iv, 1 mg/kg, 4 h

With `CCCS(=N)(=O)c1nc(N)c2[nH]c(=O)n(Cc3ccccc3)c2n1` (single isomer, unassigned) [Example 4-A, 6-Amino-9-benzyl-2-(propylsulfonimidoyl)-7H-purin-8-one] the solubility thermodynamic [1] was 56 µg/mL (≈ 162 µM), the “Relative induction of Positive control (10 μM Rifampicin) (%)” value (shortened to “Relative induction … (%)”) [2] was −0.63% and the Ames result [3] was “negative”.

For `CCCS(=N)(=O)c1nc(N)c2[nH]c(=O)n(Cc3ccccc3)c2n1` (single isomer, unassigned) [Example 4-B, 6-Amino-9-benzyl-2-(propylsulfonimidoyl)-7H-purin-8-one], the “LYSA” value ([1]; 0.05 M phosphate buffer (pH 6.5)) was 50 µg/mL, the “Relative induction … (%)” value [2] was −0.90% and the Ames result [3] was “negative”.

For `CCCS(=N)(=O)c1nc(N)c2[nH]c(=O)n(Cc3ccc(C)cc3)c2n1` (single isomer, unassigned) [Example 29-A, 6-Amino-2-(propylsulfonimidoyl)-9-(p-tolylmethyl)-7H-purin-8-one], the solubility thermodynamic [1] was 6 µg/mL (≈ 16.6 µM) and the Ames result [3] was “negative”.

For `CCS(=N)(=O)c1nc(N)c2[nH]c(=O)n(Cc3ccc(Cl)cc3)c2n1` (single isomer, unassigned) [Example 70-A, 6-Amino-9-[(4-chlorophenyl)methyl]-2-(ethylsulfonimidoyl)-7H-purin-8-one], the “Relative induction … (%)” value [2] was 0.42%, the Ames result [3] was “negative” and the “CO” value [4] was 3052 nM. The concentration at 4 h [4, 5] was 6.28 nM, the concentration at 0.083 h [4, 6] was 3050 nM and the concentration at 0.25 h [4, 7] was 1340 nM. For the same molecule, the concentration at 0.5 h [4, 8] was 718 nM, the concentration at 1 h [4, 9] was 354 nM and the concentration at 2 h [4, 10] was 110 nM. It also gave a concentration at 4 h [4, 11] of 20.5 nM.

With `CCS(=N)(=O)c1nc(N)c2[nH]c(=O)n(Cc3ccc(Cl)cc3)c2n1` (single isomer, unassigned) [Example 70-B, 6-Amino-9-[(4-chlorophenyl)methyl]-2-(ethylsulfonimidoyl)-7H-purin-8-one] the solubility thermodynamic [1] was 5 µg/mL (≈ 13.6 µM), the “Relative induction … (%)” value [2] was −0.42% and the Ames result [3] was “negative”. For the same molecule, the “AUC0-inf” value [4] was 1.894 µM·h, the “CL” value [4] was 48.7 mL/min/kg and the “CO” value [4] was 2782 nM. The concentration at 4 h ([4]; 0.083 h, read-out: Mean plasma concentration) was 2782 nM, the concentration at 4 h ([4]; 0.25 h, read-out: Mean plasma concentration) was 1434 nM and the concentration at 4 h ([4]; 0.5 h, read-out: Mean plasma concentration) was 862 nM. It also gave a concentration at 4 h ([4]; 1 h, read-out: Mean plasma concentration) of 461 nM, a concentration at 4 h ([4]; 2 h, read-out: Mean plasma concentration) of 173 nM and a concentration at 4 h ([4]; 4 h, read-out: Mean plasma concentration) of 29.1 nM. For the same molecule, the concentration at 4 h [4, 5] was 16.7 nM.

With `CCS(=N)(=O)c1nc(N)c2[nH]c(=O)n(Cc3ccc(C)cc3)c2n1` (single isomer, unassigned) [Example 71-A, 6-Amino-2-(ethylsulfonimidoyl)-9-(p-tolylmethyl)-7H-purin-8-one] the solubility thermodynamic [1] was 13 µg/mL (≈ 37.5 µM), the “Relative induction … (%)” value [2] was −0.10% and the Ames result [3] was “negative”. For the same molecule, the “CO” value [4] was 1848 nM, the concentration at 0.083 h [4, 6] was 1850 nM and the concentration at 0.25 h [4, 7] was 1000 nM. For the same molecule, the concentration at 0.5 h [4, 8] was 537 nM, the concentration at 1 h [4, 9] was 292 nM and the concentration at 2 h [4, 10] was 115 nM. It also gave a concentration at 4 h [4, 11] of 18.2 nM.

In the case of `CCCS(=N)(=O)c1nc(N)c2[nH]c(=O)n(Cc3ccccc3)c2n1` (stereo not shown) [Example 4, 6-Amino-9-benzyl-2-(propylsulfonimidoyl)-7H-purin-8-one], the solubility thermodynamic [1] is reported as 21 µg/mL (≈ 60.6 µM) and the Ames result [3] is reported as “negative”.

For `CCCS(=N)(=O)c1nc(N)c2[nH]c(=O)n(Cc3ccc(Cl)cc3)c2n1` (stereo not shown) [Example 9, 6-Amino-9-[(4-chlorophenyl)methyl]-2-(propylsulfonimidoyl)-7H-purin-8-one], the Ames result [3] was “negative”.

With `CCCS(=N)(=O)c1nc(N)c2[nH]c(=O)n(Cc3ccc(F)c(F)c3)c2n1` (stereo not shown) [Example 27, 6-Amino-9-(3,4-difluorophenylmethyl)-2-(propylsulfonimidoyl)-7H-purin-8-one] the solubility thermodynamic [1] was 7 µg/mL (≈ 18.3 µM) and the Ames result [3] was “negative”.

In the case of `CCCS(=N)(=O)c1nc(N)c2[nH]c(=O)n(Cc3ccc(C)nc3)c2n1` (stereo not shown) [Example 34, 6-Amino-9-[(6-methyl-3-pyridyl)methyl]-2-(propylsulfonimidoyl)-7H-purin-8-one], the Ames result [3] is reported as “negative”.

For `CCCS(=N)(=O)c1nc(N)c2[nH]c(=O)n(Cc3ccc(C(=O)O)cc3)c2n1` (stereo not shown) [Example 39, 4-[[6-Amino-8-oxo-2-(propylsulfonimidoyl)-7H-purin-9-yl]methyl]benzoic acid], the solubility thermodynamic [1] was greater than 520 µg/mL and the Ames result [3] was “negative”.
